Where two headings read alike, the source gives them in different places.
Assays:
[1] = Plasma pharmacokinetics after multiple oral doses (MAD cohorts); type: in vivo, human; details: for AUC / Cmax / Tmax / half-life: human, plasma, oral; for AUC / Cmax: geometric mean (geometric CV%); for Tmax: median (range)
Text: The MAD cohorts also used a randomized, double-blind, placebo-controlled, sequential design. […] For all study groups, blood samples for PK assessment were obtained predose, up to 12 times daily on day 1, and then at regular intervals throughout the study (see Supplemental Appendix for details). Standard noncompartmental methods were used to calculate PK parameters using Phoenix WinNonlin, version 7.0; actual sample collection times were used. […] Steady-state analysis In the M AD cohort, a steady- state an alysis for […] erfo rmed o n the ln-transformed plasma trough concentrat ion (Ctrough) values using Helmert contrasts. An analysis of variance (ANOVA) model was co nducted separately fo r each dose level; day w as in cluded as the fix ed effect. Helmert contrasts were d eveloped su ch that each time- point was compared with the mean of the subsequent time-points. Steady state was established at the time-point where no statistical differen ce (alpha = 5%, 2 -sided) was obs […] the subsequent time-points. 5

[2] = test system: healthy adults; assay: Safety echocardiograms assessed by study cardiologist (AEs of decreased LVEF); type: in vivo, human; details: for LVEF deemed AE (decreased ejection fraction <45%): study cardiologist
Text: Recommendations regarding dose escalation in the SAD cohorts—and in the MAD cohorts described in the next section—were made by the treating investigator (who was blinded to treatment group) and endorsed or not by the Dose Level Review Committee (DLRC), the members of which were unblinded. […] Criteria for escalation included that no more than 2 participants in a dose group developed an LVEF of <50% and that no individual developed an LVEF of <45%; escalation criteria are given in full in the Supplemental Appendix. For safety monitoring, participants in all cohorts had periodic echocardiograms, which were assessed by a cardiologist. In the SAD and MAD cohorts, echocardiograms were also reviewed by an echocardiography core laboratory for PD assessments, as described in the section on echocardiographic methods. In addition, participants in all cohorts were monitored with continuous 12-lead ECG recording using Holter monitors. For safety monitoring, a single 12-lead ECG was extracted at screening, predose, and periodically throughout follow-up and interpreted by the investigator. In the SAD, MAD, and CYP2D6-PM cohorts, cardiodynamic ECGs (triplicate 10-second, 12-lead ECG recordings) were obtained before the corresponding PK blood sample (see the Supplemental Appendix for full details on blood sampling), and ECG intervals were quantitated by qualified readers.

[3] = SAD 40 mg, one participant, 6 h after drug dose
[4] = SAD 50 mg, one participant, 4 h after drug dose
[5] = SAD 75 mg, single participant, 4 h after drug dose

CCc1nc(-c2ccc3c(c2)CC[C@H]3NC(=O)c2cnn(C)c2)no1 [Aficamten]
Day by the end of which steady state was achieved ([1]; 5-mg dose once daily): 12 days
Day by the end of which steady state was achieved ([1]; 7.5-mg dose once daily): 12 days
Day by the end of which steady state was achieved ([1]; 10-mg dose once daily): 10 days
AUC ([1]; 5 mg, Day 1, 5 mg qd × 14 d, n = 6, read-out: AUC24): 278 ng·h/mL
Cmax ([1]; 5 mg, Day 1, 5 mg qd × 14 d, n = 6, read-out: Cmax): 28 ng/mL
Tmax ([1]; 5 mg, Day 1, 5 mg qd × 14 d, n = 6, read-out: Tmax): 1.3 h
half-life ([1]; 5 mg, Day 14, 5 mg qd × 14 d, arithmetic mean ± SD, n = 6, read-out: t½ (converted)): 86.4 ± 11.9 h
AUC ([1]; 5 mg, Day 14, 5 mg qd × 14 d, n = 6, read-out: AUCtau): 1320 ng·h/mL
Cmax ([1]; 5 mg, Day 14, 5 mg qd × 14 d, n = 6, read-out: Cmax,ss): 69 ng/mL
Tmax ([1]; 5 mg, Day 14, 5 mg qd × 14 d, n = 6, read-out: Tmax,ss): 2.8 h
AUC ([1]; 7.5 mg, Day 1, 7.5 mg qd × 17 d, n = 6, read-out: AUC24): 551 ng·h/mL
Cmax ([1]; 7.5 mg, Day 1, 7.5 mg qd × 17 d, n = 6, read-out: Cmax): 69.3 ng/mL
Tmax ([1]; 7.5 mg, Day 1, 7.5 mg qd × 17 d, n = 6, read-out: Tmax): 0.8 h
half-life ([1]; 7.5 mg, Day 17, 7.5 mg qd × 17 d, arithmetic mean ± SD, n = 6, read-out: t½ (converted)): 76.9 ± 14.5 h
AUC ([1]; 7.5 mg, Day 17, 7.5 mg qd × 17 d, n = 6, read-out: AUCtau): 2520 ng·h/mL
Cmax ([1]; 7.5 mg, Day 17, 7.5 mg qd × 17 d, n = 6, read-out: Cmax,ss): 148 ng/mL
Tmax ([1]; 7.5 mg, Day 17, 7.5 mg qd × 17 d, n = 6, read-out: Tmax,ss): 1 h
half-life ([1]; 10 mg, 5, 7.5, 10 mg once daily, read-out: Terminal elimination half-life, range across multiple-dose cohorts): 77 to 86 h
AUC ([1]; 10 mg, Day 1, 10 mg qd × 14 d, n = 6, read-out: AUC24): 547 ng·h/mL
Cmax ([1]; 10 mg, Day 1, 10 mg qd × 14 d, n = 6, read-out: Cmax): 54.4 ng/mL
Tmax ([1]; 10 mg, Day 1, 10 mg qd × 14 d, n = 6, read-out: Tmax): 1 h
half-life ([1]; 10 mg, Day 14, 10 mg qd × 14 d, arithmetic mean ± SD, n = 6, read-out: t½ (converted)): 79.8 ± 14.1 h
AUC ([1]; 10 mg, Day 14, 10 mg qd × 14 d, n = 6, read-out: AUCtau): 2630 ng·h/mL
Cmax ([1]; 10 mg, Day 14, 10 mg qd × 14 d, n = 6, read-out: Cmax,ss): 141 ng/mL
Tmax ([1]; 10 mg, Day 14, 10 mg qd × 14 d, n = 6, read-out: Tmax,ss): 2.5 h
Attainment of steady state ([1]; once-daily dosing): ≤ 2 weeks
Participants with echocardiogram-related AEs of decreased LVEF of <45% ([2]; 1 each in SAD 40-mg, 50-mg, and 75-mg cohorts): 3 participants
AEs of decreased ejection fraction of <45% ([2]; MAD, CYP2D6-PM, and food-effect cohorts): no echocardiographic AEs
Grade of AE of decreased ejection fraction ([2]; SAD 40 mg, one participant): 1 (mild)
Onset of AE of decreased ejection fraction (time after drug dose) ([2]; SAD 40 mg, one participant): 1.4 h
LVEF recorded at resolution of AE [2, 3]: 58.4%
Time from onset to resolution of AE of decreased ejection fraction [2, 3]: 4.6 h
LVEF deemed AE (decreased ejection fraction <45%) ([2]; SAD 40 mg, one participant): 42.2%
Decrease in LVEF of 1 participant after cohort expansion ([2]; SAD 50 mg): > 15%
LVEF of 1 participant after cohort expansion ([2]; SAD 50 mg): < 45%
Postdose LVEF of 1 participant (<50%) ([2]; SAD 50 mg, initial cohort): 46.2%
Grade of AE of decreased ejection fraction ([2]; SAD 50 mg, one participant): 1 (mild)
Onset of AE of decreased ejection fraction (time after drug dose) ([2]; SAD 50 mg, one participant): 1.5 h
LVEF recorded at resolution of AE [2, 4]: 50.2%
Time from onset to resolution of AE of decreased ejection fraction [2, 4]: 2.5 h
LVEF deemed AE (decreased ejection fraction <45%) ([2]; SAD 50 mg, one participant): 42.1%
Postdose LVEF of the sentinel participant ([2]; SAD 75 mg): < 45%
Reduction in LVEF of the single participant ([2]; SAD 75 mg, […] postdose): 31.5%
Grade of AE of decreased ejection fraction ([2]; SAD 75 mg, single participant): 1 (mild)
Onset of AE of decreased ejection fraction (time after drug dose) ([2]; SAD 75 mg, single participant): 1.5 h
LVEF recorded at resolution of AE [2, 5]: 51.9%
Time from onset to resolution of AE of decreased ejection fraction [2, 5]: 2.5 h
LVEF deemed AE (decreased ejection fraction <45%) ([2]; SAD 75 mg, single participant, […] postdose): 34.6%
Time to resolution of AEs of decreased LVEF (next echocardiogram assessment) ([2]; SAD 40, 50, 75 mg): 2.5 to 4.6 h

— paper PMC9436819 (JACC: Basic to Translational Science, 2022)
